The values that follow come from patent US6965013B2, “Intermedin and its uses” (The Board of Trustees of the Leland Stanford Junior …, priority 2002, dated 2005).

For assay [1], the system named is spontaneously hypertensive rats (SHR). Briefly: Blood pressure in spontaneously hypertensive rats (tail-cuff). The settings on record: male SHR, FIG. 6D; for blockage of the hypotensive effects of IMDL: cotreatment with IMDL. In kind it is in vivo, rat. As to the method: (§1) Effects of intermedin on blood pressure and heart rate in normal and hypertensive rats. Blood pressure measurements in conscious male Sprague-Dawley rats and spontaneously hypertensive rats (SHR)(7-9 weeks of age) were made in animals preadapted to the measurement procedure. Indirect systolic pressure was determined by a programmable NIBP system using the tail-cuff method (Columbus Instruments, Columbus, Ohio). Following attachment of the pressure transducer, rats were left undisturbed for 10 min before baseline measurements that spanned a 15-min interval. Following baseline measurements, rats were injected intraperitoneally with varying doses of hormones. Blood pressure and heart rate were monitored for 40 min at 20-sec intervals. Changes in blood pressure were calculated as the average of thirty measurements performed within each 10-min interval.

The subject of assay [2] is male Sprague-Dawley rats. Briefly: Blood pressure and heart rate in normal rats (tail-cuff). In kind it is in vivo, rat. The settings on record: for blockage of the hypotensive effect of IMDL: male Sprague-Dawley rats, cotreatment with IMDL, CGRP8-37 in 20-fold excess, FIG. 6C; for systolic blood pressure / heart rate: conscious male Sprague-Dawley rats, intraperitoneal; for systolic blood pressure: monitored 40 min, FIGS. 6A, 6C; for heart rate: FIG. 6B. As to the method: as §1

Assay [3] concerns the target T1, SK-N-MC cells expressing endogenous CRLR (CGRP receptor) (Homo sapiens, UniProt O60894+Q16602).
T1 construct: expressing endogenous CRLR; host or cells: SK-N-MC human neuroblastoma cells
Briefly: Stimulation of cAMP production in SK-N-MC cells. It counts as cell-based. The conditions noted are these: 30 min treatment, 2.5 mM IBMX, FIG. 2A. The method, then: (§2) Human neuroblastoma SK-N-MC and rat L6 skeletal myoblast cells expressing endogenous CRLR were obtained from American Type Culture Collection. To estimate adenylyl cyclase activation, SK-N-MC and L6 cells (2×10^5 viable cells/well) were plated in 24-well culture dishes in DMEM/F12 medium one day before treatment. Following 2 h incubation in serum-free DMEM/F12 medium, cells were treated with testing reagents for 30 min in medium containing 0.1% BSA and 2.5 mM 3-isobutyl-1-methylxanthine (IBMX, Sigma-Aldrich Corp.) to prevent hydrolysis of cAMP by phosphodiesterases. Following treatment, cells were lysed and cAMP content determined by a specific radioimmunoassay.
In general terms: Changes in cAMP serve as a functional read-out for many G protein-coupled receptors.

In assay [4] the target is T2, L6 skeletal myoblast cells expressing endogenous CRLR (CGRP receptor) (Rattus norvegicus, UniProt Q63118+Q9JJ74).
T2 construct: expressing endogenous CRLR; host or cells: L6 rat skeletal myoblast cells
T2 sequence (Q63118 24-464): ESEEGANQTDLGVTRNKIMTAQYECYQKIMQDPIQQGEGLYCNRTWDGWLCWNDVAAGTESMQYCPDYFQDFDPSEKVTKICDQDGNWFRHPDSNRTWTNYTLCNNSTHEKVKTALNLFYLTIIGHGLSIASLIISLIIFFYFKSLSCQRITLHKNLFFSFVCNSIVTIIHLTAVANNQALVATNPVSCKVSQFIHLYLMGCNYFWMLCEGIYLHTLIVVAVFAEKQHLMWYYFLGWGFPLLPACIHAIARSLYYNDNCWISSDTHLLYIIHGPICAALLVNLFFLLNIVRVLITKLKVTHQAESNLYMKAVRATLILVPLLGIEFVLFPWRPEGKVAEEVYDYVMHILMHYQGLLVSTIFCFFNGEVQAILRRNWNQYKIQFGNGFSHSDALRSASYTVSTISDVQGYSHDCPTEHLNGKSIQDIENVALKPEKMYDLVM
T2 sequence (Q9JJ74 27-148 partner): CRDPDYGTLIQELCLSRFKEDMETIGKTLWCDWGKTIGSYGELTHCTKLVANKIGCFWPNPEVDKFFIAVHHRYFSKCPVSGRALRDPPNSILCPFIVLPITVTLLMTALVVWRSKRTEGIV
Briefly: Stimulation of cAMP production in L6 cells. It counts as cell-based. The settings on record: for cAMP production: 30 min treatment, 2.5 mM IBMX, FIG. 2B. The method, then: as §2

Assay [5] addresses T3, CGRP receptor (CRLR) on intact L6 cells (Rattus norvegicus, UniProt Q63118+Q9JJ74).
T3 construct: expressing endogenous CRLR; host or cells: L6 rat skeletal myoblast cells
Briefly: Receptor-binding assay, displacement of 125I-CGRP from L6 cells. The settings on record: 37C, 2 h, FIG. 2F. The method, then: Receptor-binding assay. Ligand-binding assays were done in siliconized microfuge tubes at 37C for 2 h. […] After a 2 h incubation at 37C, the cell-associated ligand was estimated. Radioactivity was determined using a γ-counter (EG&G Wallace, Gaithersburg, Md.).
(In a radioligand displacement assay an active substance lowers the binding of a labelled ligand.)

In assay [6] the test system is C57/BL6 male mice. Briefly: Cumulative food intake in fasted mice. The conditions noted are these: mice fasted 20 h, intraperitoneal 100 nM/Kg, 1, 2 and 4 h after treatment, FIG. 7. In kind it is in vivo, mouse. As to the method: Analysis of ingestive behavior. Eight-week-old C57/BL6 male mice were housed individually in a regulated environment. Before intraperitoneal injection with testing reagents, mice were deprived of food for 20 h with free access to water. Food intake was measured by placing preweighed pellets in the cage and weighing uneaten pellets at 1, 2, and 4 h after treatment.

Assay [7] concerns C57/BL6 male mice. Briefly: Gastric emptying activity in mice. It counts as in vivo, mouse. The settings on record: intraperitoneal 100 nM/Kg, 90 min after hormone treatment, FIG. 8. The method, then: Effects of intermedin on gastric emptying activity. Eight-week-old C57/BL6 male mice deprived of food for 20 h were given food pellets for 90 min before intraperitoneal injection with different hormones or saline. After treatment, mice were deprived of food again and killed 90 min later. The stomach was excised at the pylorus and cardia before weighing. Gastric emptying was calculated by comparing the stomach weight of treated mice to the stomach weight of control mice killed at the time of hormone injection.

For assay [8] the following is noted: humans, administration of ADM, earlier studies; cited from earlier work.
For assay [9], the target named is T4, endogenous calcitonin receptor (Homo sapiens, UniProt P30988).
T4 construct: through the endogenous calcitonin receptor; endogenous in cells; host or cells: HEK293T
T4 sequence (P30988 25-474): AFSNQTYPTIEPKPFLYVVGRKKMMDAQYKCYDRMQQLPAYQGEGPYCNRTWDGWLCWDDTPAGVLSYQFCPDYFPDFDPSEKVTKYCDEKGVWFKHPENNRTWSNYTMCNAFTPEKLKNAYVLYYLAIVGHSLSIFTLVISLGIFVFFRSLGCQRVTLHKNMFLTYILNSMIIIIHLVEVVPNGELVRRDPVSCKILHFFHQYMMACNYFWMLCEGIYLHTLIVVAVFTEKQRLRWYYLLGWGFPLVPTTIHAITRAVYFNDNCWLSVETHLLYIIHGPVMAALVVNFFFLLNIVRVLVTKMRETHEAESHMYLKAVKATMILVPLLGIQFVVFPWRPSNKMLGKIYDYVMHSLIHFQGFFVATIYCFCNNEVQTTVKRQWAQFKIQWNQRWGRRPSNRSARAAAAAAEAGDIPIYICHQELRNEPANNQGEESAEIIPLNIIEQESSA
Briefly: cAMP production in 293T cells via the endogenous calcitonin receptor. The conditions noted are these: FIG. 3A. It counts as cell-based.

Ends that are not written are not given here.

T1 sequence (Q16602 23-461): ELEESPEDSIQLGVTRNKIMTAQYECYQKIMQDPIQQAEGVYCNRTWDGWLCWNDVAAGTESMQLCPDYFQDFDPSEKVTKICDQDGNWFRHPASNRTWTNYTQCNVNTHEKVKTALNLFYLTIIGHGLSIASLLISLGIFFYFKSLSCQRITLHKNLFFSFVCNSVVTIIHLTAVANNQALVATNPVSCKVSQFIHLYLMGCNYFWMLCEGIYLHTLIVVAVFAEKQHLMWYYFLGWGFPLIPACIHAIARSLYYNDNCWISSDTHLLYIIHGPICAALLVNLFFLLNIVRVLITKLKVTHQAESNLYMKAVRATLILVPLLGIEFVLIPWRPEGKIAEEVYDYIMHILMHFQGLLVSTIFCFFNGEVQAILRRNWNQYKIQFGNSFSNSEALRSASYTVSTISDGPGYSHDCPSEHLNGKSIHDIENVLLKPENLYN
T1 sequence (O60894 27-148 partner): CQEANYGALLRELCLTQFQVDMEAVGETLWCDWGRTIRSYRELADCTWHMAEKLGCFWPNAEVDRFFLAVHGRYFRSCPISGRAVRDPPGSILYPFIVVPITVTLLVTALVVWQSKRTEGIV
T3 sequence (Q63118 24-464): as the sequence (Q63118 24-464) above
T3 sequence (Q9JJ74 27-148 partner): as the sequence (Q9JJ74 27-148 partner) above

“ADM22-52: low affinity ADM22-52 fragment (TVQKLAHQIYQFTDKDKDNVAPRSKISPQGY; ends and bridges not checked; UniProt P35318 116-146, looked up, fragment)”: the “blockage of the hypotensive effects of IMDL” value in assay [1] is on record as “minimal effect”.

With “CGRP8-37: N-terminally truncated CGRP, a CGRP receptor antagonist (VTHRLAGLLSRSGGVVKNNFVPTNVGSKAF; ends and bridges not checked; UniProt P06881 90-119, looked up, fragment) [reference compound]”, the “blockage of the hypotensive effect of IMDL” value in assay [2] is listed as “significantly decreased the hypotensive effects of IMDL”. Further, the “blockage of the hypotensive effects of IMDL” value in assay [1] was “abolished”.

“IMD17-47: truncated amidated intermedin fragment, putative C-terminal receptor-binding domain (VQNLSHRLWQLMGPAGRQDSAPVDPSSPHSY-NH2)”: in assay [3], the cAMP production entry is “no effect”. Also, the cAMP production result in assay [4] is on record as “no effect”. Further, in assay [4] (cotreatment with intermedin, IMD17-47 at 1 μM, FIGS. 2C, 2D), the “blockage of the stimulatory effect of intermedin on cAMP production” value is “functional antagonist of intermedin action”. Moreover, in [2], the systolic blood pressure entry was “no effect” and the “blockage of the hypotensive effect of IMDL” value is “blocked the hypotensive effects of IMDL”.

For “IMDL: 47-amino-acid amidated mature human intermedin peptide, SEQ ID NO:5 residues 1-47”, in assay [4], the cAMP production result was “dose-dependent increases of cAMP production”. The “competitive displacement of 125I-CGRP binding” value in assay [5] was “displaced ^125I-CGRP binding”. Further, in [2], the heart rate result is recorded as “increased heart rate” and the systolic blood pressure result is recorded as “dose-dependently suppressed blood pressure”. The blood pressure entry in assay [1] (intraperitoneal) was “reduced blood pressure”. Also, the cumulative food intake entry in [6] was “decreased food intake”. The gastric emptying activity result in [7] is on record as “Reduction of gastric emptying”.

In the case of “IMDS: 40-amino-acid amidated mature human intermedin peptide, SEQ ID NO:5 residues 8-47”, in [4], the cAMP production result is “dose-dependent increases of cAMP production”. In addition, the “competitive displacement of 125I-CGRP binding” value in assay [5] was “displaced ^125I-CGRP binding”. In addition, in assay [2], the heart rate entry was “increased heart rate” and the systolic blood pressure entry was “dose-dependently suppressed blood pressure”. In addition, in assay [6], the cumulative food intake result is reported as “decreased food intake”. In addition, the gastric emptying activity entry in assay [7] is “Reduction of gastric emptying”.

For the substance “SRP/urocortin II: type II CRH receptor-selective agonist, known gastric emptying suppression peptide (IVLSLDVPIGLLQILLEQARARAAREQATTNARILARVGHC; Urocortin-2; UniProt Q96RP3 72-112, looked up) [reference compound]”, the cumulative food intake entry in assay [6] is given as “decreased food intake”. For the same substance, in [7], the gastric emptying activity entry is on record as “Reduction of gastric emptying”.

On to “adrenomedullin [ADM, reference compound]”, for which, in assay [4], the cAMP production entry was “stimulated cAMP production”. Besides, in [2], the heart rate result is “Increase in heart rate” and the systolic blood pressure entry is recorded as “dose-dependently suppressed systolic blood pressure”. Besides, the cumulative food intake entry in [6] is given as “decreased food intake”. Also, the gastric emptying activity result in assay [7] was “suppressed the gastric emptying activity, but with a lower potency”. Besides, in assay [8], the circulating prolactin levels entry was “increases circulating prolactin levels”.

Take calcitonin: in assay [9], the cAMP production entry is reported as “increases cAMP dose-dependently”.

In the case of “nonamidated form of intermedin: nonamidated form of the synthetic intermedin peptide”, the cAMP production result in [4] was “no effect”.

Consider “prointermedin55-85: 31-amino-acid peptide from the prepro-region of human intermedin (PRPVVWKLHRALQAQRGAGLAPVMGQPLRDG; pro-form; UniProt Q7Z4H4 55-85, looked up, fragment)”, for which the cAMP production result in [3] and in assay [4] was “no effect” throughout. Also, the systolic blood pressure entry in assay [2] was “no effect”.
